28 compounds from patent publication US20250026752A1, “POSITIVE ALLOSTERIC MODULATORS OF THE MUSCARINIC ACETYLCHOLINE RECEPTOR M4” (Vanderbilt University, priority 2021, published 2025) can be followed below.

The target in the test is T1, human mAChR M4 (Homo sapiens, UniProt P08173).
T1 construct: expressed in transfected cells; host or cells: CHO-K1 (ATCC), stably expressing hM4 and Gqi5
T1 sequence (P08173 1-479): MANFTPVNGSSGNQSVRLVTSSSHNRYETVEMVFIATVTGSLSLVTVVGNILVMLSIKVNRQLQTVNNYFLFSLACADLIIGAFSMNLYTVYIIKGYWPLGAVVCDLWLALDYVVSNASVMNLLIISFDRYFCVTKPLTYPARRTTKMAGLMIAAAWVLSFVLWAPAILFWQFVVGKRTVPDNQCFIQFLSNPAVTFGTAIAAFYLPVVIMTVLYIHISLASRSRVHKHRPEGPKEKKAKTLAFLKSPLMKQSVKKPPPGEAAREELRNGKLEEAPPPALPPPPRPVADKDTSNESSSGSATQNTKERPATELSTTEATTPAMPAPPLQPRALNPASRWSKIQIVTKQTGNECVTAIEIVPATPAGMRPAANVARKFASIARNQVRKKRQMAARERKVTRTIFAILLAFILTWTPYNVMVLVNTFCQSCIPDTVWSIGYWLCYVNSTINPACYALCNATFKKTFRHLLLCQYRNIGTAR
Nature of the test: mAChR M4 cell-based functional assay: calcium flux (Fluo-4, FDSS), positive allosteric modulator activity on the EC20 acetylcholine response, hM4-Gqi5 CHO-K1 cells. The note with it: for Emax at 30 µM: CHO-K1, human M4, % ACh maximum at 30 μM; for EC50: human M4, PAM activity on EC20 acetylcholine response, calcium flux, read-out: Human M4 EC50. In short, it runs like this: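 CHO-K1 cells stably expressing human M4 with chimeric Gqi5, loaded with Fluo-4 AM for 50 min at 37° C. Compounds (11-point, 1:3 dilutions) added first, then an acetylcholine EC20 at 144 s; calcium read on FDSS at 1 Hz. EC50 is the half-maximal increase above the EC20 baseline, four-parameter logistic fit.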

With `Fc1ccccc1Oc1cnc2c(c1)CN(c1ncnc3ccc(Cl)cc13)CC2` [Compound 232, 6-chloro-4-(3-(2-fluorophenoxy)-7,8-dihydro-1,6-naphthyridin-6(5H)-yl)quinazoline], the Emax – broadly, the size of the effect at its maximum, as opposed to the concentration needed – at 30 µM worked out at 77% and the EC50 (usually the concentration that produces a half-maximal response) amounted to 740 nM.
On to `Cc1nc(N2CCc3ncc(-c4cn(C)nc4C)cc3C2)c2cc(C(F)(F)F)ccc2n1` [Compound 57, 4-[3-(1,3-dimethylpyrazol-4-yl)-7,8-dihydro-5H-1,6-naphthyridin-6-yl]-2-methyl-6-(trifluoromethyl)quinazoline], for which the Emax at 30 µM amounted to 59% and the EC50 was 2890 nM.
In the case of `FC(F)(F)c1cnc2c(c1)CN(c1nc(Cl)nc3ccccc13)CC2` [Compound 123, 2-chloro-4-[3-(trifluoromethyl)-7,8-dihydro-5H-1,6-naphthyridin-6-yl]quinazoline], the Emax at 30 µM was determined as 68% and the EC50 came out at 340 nM.
On to `Cc1nc(N2CCc3ncc(-c4cc(F)ccc4C)cc3C2)c2cc(F)ccc2n1` [Compound 295, 6-fluoro-4-(3-(5-fluoro-2-methylphenyl)-7,8-dihydro-1,6-naphthyridin-6(5H)-yl)-2-methylquinazoline], for which the Emax at 30 µM was 85% and the EC50 amounted to 2630 nM.
On to `CC1(C)CN(c2cnc3c(c2)CN(c2ncnc4cc(F)c(F)cc24)CC3)CCO1` [Compound 242, 4-(6-(6,7-difluoroquinazolin-4-yl)-5,6,7,8-tetrahydro-1,6-naphthyridin-3-yl)-2,2-dimethylmorpholine], for which the Emax at 30 µM turned out to be 90% and the EC50 worked out at 30 nM.
With `Fc1ccc2nc(NC3CC(F)(F)C3)nc(N3CCc4ncc(C(F)(F)F)cc4C3)c2c1` [Compound 184, N-(3,3-difluorocyclobutyl)-6-fluoro-4-[3-(trifluoromethyl)-7,8-dihydro-5H-1,6-naphthyridin-6-yl]quinazolin-2-amine], the Emax at 30 µM turned out to be 93% and the EC50 was determined as 1380 nM.
Regarding `Cc1ccc2nc(N3CCOCC3)nc(N3CCc4ncc(C(F)(F)F)cc4C3)c2c1` [Compound 205, 4-[6-methyl-4-[3-(trifluoromethyl)-7,8-dihydro-5H-1,6-naphthyridin-6-yl]quinazolin-2-yl]morpholine], the Emax at 30 µM was 63% and the concentration for a half-maximal effect (EC50) was found to be 670 nM.
In the case of `Cc1ccc2nc(C)nc(N3CCc4ncc(-c5ccccc5C)cc4C3)c2c1` [Compound 316, 2,6-dimethyl-4-(3-(o-tolyl)-7,8-dihydro-1,6-naphthyridin-6(5H)-yl)quinazoline], the Emax at 30 µM amounted to 93% and the EC50 was 1600 nM.
Taken in the same sequence, the figures for `Fc1ccc2nc(C3CC3)nc(N3CCc4ncc(N5CCCn6nccc65)cc4C3)c2c1` [Compound 194, 2-cyclopropyl-4-[3-(6,7-dihydro-5H-pyrazolo[1,5-a]pyrimidin-4-yl)-7,8-dihydro-5H-1,6-naphthyridin-6-yl]-6-fluoro-quinazoline] were 10% and 230 nM.
For `COc1ccc2nc(O)nc(N3CCc4ncc(C(F)(F)F)cc4C3)c2c1` [Compound 221, 6-methoxy-4-(3-(trifluoromethyl)-7,8-dihydro-1,6-naphthyiridin-6(5H)-yl)quinazolin-2-ol], the Emax at 30 µM stood at 44% and the EC50 turned out to be 1490 nM.
Turning to `Cc1nc(N2CCc3ncc(Nc4cccnc4F)cc3C2)c2cc(F)ccc2n1` [Compound 70, 6-(6-fluoro-2-methyl-quinazolin-4-yl)-N-(2-fluoro-3-pyridyl)-7,8-dihydro-5H-1,6-naphthyridin-3-amine], the Emax at 30 µM is 85% and the EC50 amounted to 130 nM.
With `Cc1nc(N2CCc3ncc(Nc4ccnn4C)cc3C2)c2cc(Cl)ccc2n1` [Compound 108, 6-(6-chloro-2-methyl-quinazolin-4-yl)-N-(2-methylpyrazol-3-yl)-7,8-dihydro-5H-1,6-naphthyridin-3-amine], the Emax at 30 µM stood at 102% and the EC50 worked out at 170 nM.
As to `CC1CN(c2ncnc3ccc(F)cc23)Cc2cc(N3C(=O)COc4ccccc43)cnc21` (centres unmarked) [Compound 251, 4-(6-(6-fluoroquinazolin-4-yl)-8-methyl-5,6,7,8-tetrahydro-1,6-naphthyridin-3-yl)-2H-benzo[b][1,4]oxazin-3(4H)-one], the Emax at 30 µM was found to be 75% and the EC50 is 750 nM.
In the case of `Clc1ccc2ncnc(N3CCc4ncc(N5CCOc6ncccc65)cc4C3)c2c1` [Compound 105, 1-[6-(6-chloroquinazolin-4-yl)-7,8-dihydro-5H-1,6-naphthyridin-3-yl]-2,3-dihydropyrido[2,3-b][1,4]oxazine], the Emax at 30 µM is 91% and the EC50 was found to be 70 nM.
`COc1ccc2ncnc(N3CCc4ncc(C5CC5)cc4C3)c2c1` [Compound 161, 4-(3-cyclopropyl-7,8-dihydro-5H-1,6-naphthyridin-6-yl)-6-methoxy-quinazoline]: the Emax at 30 µM is 83% and the EC50 is 110 nM.
With `Fc1ccc(Cc2cnc3c(c2)CN(c2ncnc4ccc(F)cc24)CC3)cc1` [Compound 170, 6-fluoro-4-[3-[(4-fluorophenyl)methyl]-7,8-dihydro-5H-1,6-naphthyridin-6-yl]quinazoline], the Emax at 30 µM turned out to be 82% and the EC50 came out at 490 nM.
For the compound `COc1ccc2ncnc(N3CCc4ncc(C(F)(F)F)cc4C3)c2c1` [Compound 139, 6-methoxy-4-[3-(trifluoromethyl)-7,8-dihydro-5H-1,6-naphthyridin-6-yl]quinazoline], the Emax at 30 µM came to 97% and the EC50 amounted to 200 nM.
With `C[C@H]1CN(c2ncnc3ccc(F)cc23)Cc2cc(N3CCOCC3)cnc21` [Compound 262, (S)-4-(6-(6-fluoroquinazolin-4-yl)-8-methyl-5,6,7,8-tetrahydro-1,6-naphthyridin-3-yl)morpholine], the Emax at 30 µM came out at 73% and the EC50 turned out to be 260 nM.
As to `Cc1ccc2nc(C)nc(N3CCc4ncc(-c5cnc(F)cc5C)cc4C3)c2c1` [Compound 318, 4-(3-(6-fluoro-4-methylpyridin-3-yl)-7,8-dihydro-1,6-naphthyridin-6(5H)-yl)-2,6-dimethylquinazoline], the Emax at 30 µM came out at 92% and the concentration for a half-maximal effect (EC50) worked out at 70 nM.
Take `Cc1nc(N2CCc3ncc(-c4cnn(C5CC5)c4)cc3C2)c2cc(F)ccc2n1` [Compound 5, 4-[3-(1-cyclopropylpyrazol-4-yl)-7,8-dihydro-5H-1,6-naphthyridin-6-yl]-6-fluoro-2-methyl-quinazoline]: the Emax at 30 µM was found to be 80% and the EC50 turned out to be 340 nM.
Regarding `Cc1ccc2nc(C)nc(N3CCc4ncc(-c5cnn(C6CC6)c5)cc4C3)c2c1` [Compound 33, 4-[3-(1-cyclopropylpyrazol-4-yl)-7,8-dihydro-5H-1,6-naphthyridin-6-yl]-2,6-dimethyl-quinazoline], the maximal response (Emax) at 30 µM stood at 92% and the EC50 amounted to 380 nM.
Turning to `Cc1nc(N2CCc3ncc(C(F)(F)F)cc3C2)c2cc(Br)ccc2n1` [Compound 129, 6-bromo-2-methyl-4-[3-(trifluoromethyl)-7,8-dihydro-5H-1,6-naphthyridin-6-yl]quinazoline], the Emax at 30 µM was 86% and the 50% effective concentration (EC50) came to 180 nM.
Taken in the same sequence, the figures for `CC1CN(c2ncnc3ccc(F)cc23)Cc2cc(C(F)(F)F)cnc21` (single isomer, unassigned) [Compound 116, 6-fluoro-4-[(8R or S)-8-methyl-3-(trifluoromethyl)-7,8-dihydro-5H-1,6-naphthyridin-6-yl]quinazoline] were 113% and 70 nM.
As to `CN(C)c1ccc(-c2cnc3c(c2)CN(c2ncnc4ccc(Cl)cc24)CC3)cn1` [Compound 41, 5-[6-(6-chloroquinazolin-4-yl)-7,8-dihydro-5H-1,6-naphthyridin-3-yl]-N,N-dimethyl-pyridin-2-amine], the Emax at 30 µM was 74% and the EC50 was 430 nM.
For `Fc1ncccc1Nc1cnc2c(c1)CN(c1ncnc3ccc(Cl)cc13)CC2` [Compound 71, 6-(6-chloroquinazolin-4-yl)-N-(2-fluoro-3-pyridyl)-7,8-dihydro-5H-1,6-naphthyridin-3-amine] the same measures were 82% and 140 nM.
Turning to `Cc1nc(N2Cc3cc(C(F)(F)F)cnc3C(C)(C)C2)c2cc(F)ccc2n1` [Compound 118, 4-[8,8-dimethyl-3-(trifluoromethyl)-5,7-dihydro-1,6-naphthyridin-6-yl]-6-fluoro-2-methyl-quinazoline], the Emax at 30 µM came to 63% and the EC50 was determined as 8390 nM.
Consider `Cc1nc(N2CCc3ncc(N4CCOc5ncccc54)cc3C2)c2cc(F)ccc2n1` [Compound 85, 1-[6-(6-fluoro-2-methyl-quinazolin-4-yl)-7,8-dihydro-5H-1,6-naphthyridin-3-yl]-2,3-dihydropyrido[2,3-b][1,4]oxazine], for which the Emax at 30 µM was 85% and the EC50 was determined as 30 nM.
For `Fc1ccc2ncnc(N3CCc4ncc(-c5ccc(C6CC6)nc5)cc4C3)c2c1` [Compound 37, 4-[3-(6-cyclopropyl-3-pyridyl)-7,8-dihydro-5H-1,6-naphthyridin-6-yl]-6-fluoro-quinazoline] the same measures were 88% and 260 nM.
